Measured values from BigSolDB 2.1.

NC(=O)c1ccc(N)cc1
solubility (mole fraction)
Details	283.15 K	288.15 K	293.15 K	298.15 K	303.15 K	308.15 K	313.15 K	318.15 K	323.15 K
in acetone	0.00745	0.00795	0.0086	0.00956	0.0105	0.0118	0.0137	0.0154	0.0176
in acetonitrile	0.00193	0.00204	0.00225	0.00251	0.00298	0.0036	0.00447	0.00546	0.00661
in ethanol	0.00621	0.00649	0.00697	0.00777	0.00883	0.0104	0.0121	0.0141	0.016
in ethyl acetate	0.000539	0.000606	0.000697	0.000845	0.00103	0.00131	0.00166	0.00207	0.00257
in isobutanol	0.00239	0.00249	0.00263	0.0028	0.00309	0.00342	0.00384	0.00422	0.00467
in isopropanol	0.00331	0.00354	0.00393	0.00431	0.00487	0.00577	0.00677	0.00819	0.00965
in methanol	0.0121	0.0132	0.0145	0.0163	0.0188	0.0214	0.0246	0.0287	0.0328
in methyl acetate	0.00147	0.00154	0.0017	0.00194	0.00217	0.00247	0.00274	0.00311	0.00347
in n-butanol	0.00257	0.00274	0.00292	0.00313	0.00345	0.00375	0.00421	0.00468	0.00514
in n-butyl acetate	0.000749	0.000819	0.000974	0.00121	0.00152	0.00186	0.00229	0.00275	0.00331
in n-propanol	0.00401	0.00411	0.0044	0.00496	0.00585	0.00711	0.00839	0.01	0.0117
in water	0.000858	0.000983	0.00118	0.00146	0.00184	0.00229	0.00281	0.00364	0.00449
